Experiments:
BMK1 = BMK1 (Homo sapiens, UniProt Q13164); test: EGF-induced BMK1 activation in HeLa cells; assay type: cell-based; settings: 1 μM compound for one hour, EGF 17 min
ERK1/2 = test: EGF-induced ERK1/2 activation in HeLa cells; assay type: cell-based, human; settings: 1 μM compound for one hour, EGF 17 min

Chain of BMK1 (Q13164 whole entry): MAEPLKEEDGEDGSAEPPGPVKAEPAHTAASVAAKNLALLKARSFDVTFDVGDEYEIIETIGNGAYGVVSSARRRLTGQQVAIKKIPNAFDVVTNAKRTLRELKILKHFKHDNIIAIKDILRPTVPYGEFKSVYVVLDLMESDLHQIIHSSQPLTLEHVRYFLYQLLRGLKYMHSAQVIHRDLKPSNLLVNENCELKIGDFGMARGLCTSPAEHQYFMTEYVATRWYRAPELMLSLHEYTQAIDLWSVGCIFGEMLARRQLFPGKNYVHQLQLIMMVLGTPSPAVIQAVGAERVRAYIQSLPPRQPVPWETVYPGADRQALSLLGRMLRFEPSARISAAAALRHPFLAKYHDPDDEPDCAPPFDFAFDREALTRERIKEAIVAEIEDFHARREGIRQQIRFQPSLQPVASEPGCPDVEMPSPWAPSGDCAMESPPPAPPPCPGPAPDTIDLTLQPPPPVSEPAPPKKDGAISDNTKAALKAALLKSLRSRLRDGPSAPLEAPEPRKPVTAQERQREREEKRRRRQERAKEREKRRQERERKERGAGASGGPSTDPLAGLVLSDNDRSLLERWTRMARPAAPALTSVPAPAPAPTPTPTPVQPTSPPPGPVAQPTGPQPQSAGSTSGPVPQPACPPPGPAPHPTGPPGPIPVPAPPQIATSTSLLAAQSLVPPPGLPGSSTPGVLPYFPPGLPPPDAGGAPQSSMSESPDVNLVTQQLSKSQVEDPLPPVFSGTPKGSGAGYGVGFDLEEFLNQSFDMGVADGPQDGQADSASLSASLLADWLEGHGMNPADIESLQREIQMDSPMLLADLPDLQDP

O=C(NOCC1CC1)c1ccc(F)c(F)c1Nc1ccc(I)cc1Cl [PD184352, reference compound]
Growth factor-induced activation of cellular BMK1 (BMK1): not BMK1 activation | Growth factor-induced activation of cellular ERK1/2 (ERK1/2): only blocked ERK1/2

Reference: publication PMC2939729 (Cancer cell, 2010)
